Key:
[1] = tested on: A549-ACE2 infected with SARS-CoV-2; test: cell count relative to DMSO; higher = less toxic; conditions: 24 h
Caco-2 [2] = test: cell viability relative to DMSO; higher = less toxic; conditions: 72 h
Calu-3 [3] = test: as above; conditions: 72 h
HepG2 [4] = test: as above; conditions: 72 h
U2OS [5] = test: as above; conditions: 72 h
Vero E6 [6] = test: as above; conditions: 72 h
[7] = tested on: A549-ACE2 infected with SARS-CoV-2; test: SARS-CoV-2 infection rate relative to DMSO; higher = more infection; conditions: 24 h
A549-ACE2 [8] = test: phospholipidosis EC50; higher = less potent phospholipidosis inducer
A549-ACE2 [9] = test: drug-induced phospholipidosis relative to tamoxifen; higher = more phospholipidosis
[10] = tested on: A549-ACE2 infected with SARS-CoV-2; test: morphology score (similarity to uninfected cells); higher = more like uninfected cells; conditions: 24 h
Caco-2 [11] = test: relative viability EC50 (midpoint between 100% and the lowest measured viability); higher = less toxic; conditions: 72 h
Calu-3 [12] = test: as above; conditions: 72 h
U2OS [13] = test: as above; conditions: 72 h
Vero E6 [14] = test: as above; conditions: 72 h
Caco-2 [15] = test: drug sensitivity score (DSS) for viability; higher = more toxic; extreme values may be limits of the assay; conditions: 72 h
Calu-3 [16] = test: as above; conditions: 72 h
HepG2 [17] = test: as above; conditions: 72 h
U2OS [18] = test: as above; conditions: 72 h
Vero E6 [19] = test: as above; conditions: 72 h
HepG2 [20] = test: relative viability EC50 (midpoint between 100% and the lowest measured viability); higher = less toxic; conditions: 72 h

CCn1c2ccccc2c2cc(CNC)ccc21 [PhiKan-083]
Conditions	SARS-CoV-2 infection rate [%]	cell count [%]	cell viability [%]	morphology score	phospholipidosis EC50 [µM]
A549-ACE2 [8], 24 h	–	–	–	–	5.19
A549-ACE2 [8], 48 h	–	–	–	–	6.25
A549-ACE2 [8], 72 h	–	–	–	–	6.91
Caco-2 [2], 1 nM	–	–	102	–	–
Caco-2 [2], 10 nM	–	–	100	–	–
Caco-2 [2], 100 nM	–	–	102	–	–
Caco-2 [2], 1000 nM	–	–	105	–	–
Caco-2 [2], 10000 nM	–	–	108	–	–
Calu-3 [3], 1 nM	–	–	96.2	–	–
Calu-3 [3], 10 nM	–	–	99.9	–	–
Calu-3 [3], 100 nM	–	–	105	–	–
Calu-3 [3], 1000 nM	–	–	97.6	–	–
Calu-3 [3], 10000 nM	–	–	103	–	–
HepG2 [4], 1 nM	–	–	98.2	–	–
HepG2 [4], 10 nM	–	–	106	–	–
HepG2 [4], 100 nM	–	–	97.4	–	–
HepG2 [4], 1000 nM	–	–	99.3	–	–
HepG2 [4], 10000 nM	–	–	68.3	–	–
U2OS [5], 1 nM	–	–	99.4	–	–
U2OS [5], 10 nM	–	–	100	–	–
U2OS [5], 100 nM	–	–	99.2	–	–
U2OS [5], 1000 nM	–	–	99.7	–	–
U2OS [5], 10000 nM	–	–	98.8	–	–
Vero E6 [6], 1 nM	–	–	98.5	–	–
Vero E6 [6], 10 nM	–	–	103	–	–
Vero E6 [6], 100 nM	–	–	98.7	–	–
Vero E6 [6], 1000 nM	–	–	99.9	–	–
Vero E6 [6], 10000 nM	–	–	90.8	–	–
[1], 0.3 µM	–	103	–	–	–
[1], 3 µM	–	105	–	–	–
[1], 10 µM	–	117	–	–	–
[1], 30 µM	–	119	–	–	–
[7], 0.3 µM	94	–	–	–	–
[7], 3 µM	79	–	–	–	–
[7], 10 µM	51	–	–	–	–
[7], 30 µM	16	–	–	–	–
[10], 0.3 µM	–	–	–	0.23	–
[10], 3 µM	–	–	–	0.46	–
[10], 10 µM	–	–	–	0.75	–
[10], 30 µM	–	–	–	0.82	–

drug-induced phospholipidosis [%], A549-ACE2 [9]
Conditions	0.3 µM	0.833333 µM	3.33333 µM	6.66667 µM	10 µM	30 µM
24 h	2.5	2.35	26.5	64.2	83.4	97.2
48 h	3.59	3.69	21.8	58.2	75.7	99.9
72 h	3.02	2.71	17.3	49	70.8	95.9

Conditions	drug sensitivity score	relative viability EC50 [µM]
Caco-2 [11]	–	> 10
Caco-2 [15]	0	–
Calu-3 [12]	–	> 10
Calu-3 [16]	0	–
HepG2 [17]	1.5	–
U2OS [13]	–	> 10
U2OS [18]	0	–
Vero E6 [14]	–	> 10
Vero E6 [19]	0	–

CN(Cc1ccc(C(C)(C)C)cc1)Cc1cccc2ccccc12 [butenafine]
Conditions	SARS-CoV-2 infection rate, [7] [%]	cell count, [1] [%]	cell viability, Caco-2 [2] [%]	cell viability, Calu-3 [3] [%]	cell viability, HepG2 [4] [%]	cell viability, U2OS [5] [%]	cell viability, Vero E6 [6] [%]	morphology score, [10]
1 nM	–	–	95.3	100	106	94.6	92.8	–
10 nM	–	–	101	102	94.2	98	102	–
100 nM	–	–	92.8	98	103	96.9	95.5	–
0.3 µM	100	101	–	–	–	–	–	0.14
1000 nM	–	–	92.5	94.5	102	96.3	102	–
3 µM	105	83	–	–	–	–	–	-0.05
10 µM	77	107	–	–	–	–	–	0.58
10000 nM	–	–	93.6	98	105	96.1	97.4	–
30 µM	39	110	–	–	–	–	–	0.79

drug-induced phospholipidosis [%], A549-ACE2 [9]
Conditions	0.3 µM	0.833333 µM	3.33333 µM	6.66667 µM	10 µM	30 µM
24 h	1.71	-2.5	2.21	-2.25	2.84	7.06
48 h	1.14	-3.77	-1.99	-1.09	3.04	15.1
72 h	2.18	-4.26	-1.97	-2.04	0.626	14.1

Conditions	drug sensitivity score	relative viability EC50 [µM]
Caco-2 [11]	–	> 10
Caco-2 [15]	0	–
Calu-3 [12]	–	> 10
Calu-3 [16]	0	–
HepG2 [17]	0	–
HepG2 [20]	–	> 10
U2OS [13]	–	> 10
U2OS [18]	0	–
Vero E6 [14]	–	> 10
Vero E6 [19]	0	–

OCCN1CCN(CC/C=C2/c3ccccc3Sc3ccc(C(F)(F)F)cc32)CC1 [flupentixol]
Conditions	SARS-CoV-2 infection rate [%]	cell count [%]	cell viability [%]	morphology score	phospholipidosis EC50 [µM]
A549-ACE2 [8], 24 h	–	–	–	–	17
A549-ACE2 [8], 48 h	–	–	–	–	8.95
A549-ACE2 [8], 72 h	–	–	–	–	10.2
Caco-2 [2], 1 nM	–	–	90.3	–	–
Caco-2 [2], 10 nM	–	–	93.7	–	–
Caco-2 [2], 100 nM	–	–	95.2	–	–
Caco-2 [2], 1000 nM	–	–	87.6	–	–
Caco-2 [2], 10000 nM	–	–	92.4	–	–
Calu-3 [3], 1 nM	–	–	85.3	–	–
Calu-3 [3], 10 nM	–	–	87.7	–	–
Calu-3 [3], 100 nM	–	–	106	–	–
Calu-3 [3], 1000 nM	–	–	94.7	–	–
Calu-3 [3], 10000 nM	–	–	87	–	–
HepG2 [4], 1 nM	–	–	97.2	–	–
HepG2 [4], 10 nM	–	–	93.8	–	–
HepG2 [4], 100 nM	–	–	90	–	–
HepG2 [4], 1000 nM	–	–	96.9	–	–
HepG2 [4], 10000 nM	–	–	89.9	–	–
U2OS [5], 1 nM	–	–	99.2	–	–
U2OS [5], 10 nM	–	–	89.9	–	–
U2OS [5], 100 nM	–	–	105	–	–
U2OS [5], 1000 nM	–	–	94.6	–	–
U2OS [5], 10000 nM	–	–	92.1	–	–
Vero E6 [6], 1 nM	–	–	98.1	–	–
Vero E6 [6], 10 nM	–	–	96.9	–	–
Vero E6 [6], 100 nM	–	–	98.1	–	–
Vero E6 [6], 1000 nM	–	–	91.8	–	–
Vero E6 [6], 10000 nM	–	–	93.1	–	–
[1], 0.3 µM	–	107	–	–	–
[1], 3 µM	–	113	–	–	–
[1], 10 µM	–	124	–	–	–
[1], 30 µM	–	96	–	–	–
[7], 0.3 µM	97	–	–	–	–
[7], 3 µM	66	–	–	–	–
[7], 10 µM	17	–	–	–	–
[7], 30 µM	46	–	–	–	–
[10], 0.3 µM	–	–	–	0.2	–
[10], 3 µM	–	–	–	0.62	–
[10], 10 µM	–	–	–	0.88	–
[10], 30 µM	–	–	–	0.36	–

drug-induced phospholipidosis [%], A549-ACE2 [9]
Conditions	0.3 µM	0.833333 µM	3.33333 µM	6.66667 µM	10 µM	30 µM
24 h	4.08	5.01	30.1	43.1	72.8	122
48 h	5.09	0.98	25.8	36.9	80	116
72 h	7.2	2.4	18.4	31.8	74.8	138

Conditions	drug sensitivity score	relative viability EC50 [µM]
Caco-2 [11]	–	> 10
Caco-2 [15]	0	–
Calu-3 [12]	–	> 10
Calu-3 [16]	0.6	–
HepG2 [17]	0	–
HepG2 [20]	–	> 10
U2OS [13]	–	> 10
U2OS [18]	0	–
Vero E6 [14]	–	> 10
Vero E6 [19]	0	–

COC(=O)C[C@](O)(CCCC(C)(C)O)C(=O)O[C@@H]1C(OC)=C[C@]23CCCN2CCc2cc4c(cc2[C@H]13)OCO4 [homoharringtonine]
Conditions	SARS-CoV-2 infection rate, [7] [%]	cell count, [1] [%]	cell viability, Caco-2 [2] [%]	cell viability, Calu-3 [3] [%]	cell viability, HepG2 [4] [%]	cell viability, U2OS [5] [%]	cell viability, Vero E6 [6] [%]	morphology score, [10]
1 nM	–	–	99.3	93.4	98.4	104	92.4	–
10 nM	–	–	102	91.1	89.1	101	103	–
100 nM	–	–	61.8	60.1	29.4	23	82.1	–
0.3 µM	12	68	–	–	–	–	–	0.32
1000 nM	–	–	24.7	27.3	6	6.6	12.8	–
3 µM	16	49	–	–	–	–	–	0.26
10 µM	19	42	–	–	–	–	–	0.3
10000 nM	–	–	27.9	22	1	0.3	0.5	–
30 µM	15	30	–	–	–	–	–	0.33

Conditions	drug-induced phospholipidosis [%]
A549-ACE2 [9], 0.3 µM, 24 h	-2.95

Conditions	drug sensitivity score	relative viability EC50 [µM]
Caco-2 [11]	–	0.099
Caco-2 [15]	18.6	–
Calu-3 [12]	–	0.0897
Calu-3 [16]	18.5	–
HepG2 [17]	27	–
HepG2 [20]	–	0.0497
U2OS [13]	–	0.0616
U2OS [18]	26.8	–
Vero E6 [14]	–	0.273
Vero E6 [19]	18.2	–
